Patent US6218430A, “Vitamin D3 mimics” (Ligand Pharmaceuticals Incorporated, priority 1998, dated 2001)
“Also recorded” adds a separate entry of the source. Where two headings read alike, the source gives them in different places.

Assays:
[1] = test system: LNCaP prostate cancer cells; experiment: Prostate cancer cell growth inhibition (BrdU); format: cell-based; details: Homo sapiens, 96 h, BrdU incorporation, 4-day assay
Protocol: (§1) Cancer cell growth inhibition and analysis. SK-BR-3 human breast cancer cells (ATCC) and LNCaP human prostate cancer cells (ATCC) were plated in 96-well, flat-bottomed microtiter plates (CoStar) with 50 μL serum-containing media/well. […] Cell plating numbers (cells/well) were as follows: SK-BR-3, 3000 (3-day assays); LNCAP, 1000 (4-day assays). Cell plating number was determined by growth rate of each cell line and duration of the assay. […] Cells were allowed to adhere for 24 h prior to compound addition as follows:
(§2) Ten-fold serial dilutions were performed with changing of pipette tips between each dilution. Diluted compounds were then added to the cells (50 μL/well) to final concentrations of 1×10^-5 -1×10^-11 M (1% ethanol) in triplicate. […] BrdU (5-bromo-2'-deoxyuridine) incorporation was analyzed as a measure of DNA replication (Cell Proliferation ELISA kit, Boehringer) and absorbance was measured at 450 nm.
(§3) One row of wells contained media only and these absorbance values were averaged as background and then subtracted from absorbance values from each individual well containing cells. The average values were then determined for each triplicate and plotted vs ligand concentration. The average vehicle (1% ethanol) value was determined, less the background average. […] Potency (EC50) was determined as the concentration of compound that elicited half-maximal response.

HL60 cells = experiment: Leukemic cell differentiation (NBT and CD14); format: cell-based; details: Homo sapiens, HL-60, 120 h; NBT and CD14 assays; differentiation into macrophages/monocytes; 5 days
Protocol: Leukemic cell differentiation. […] Ligands were added in ethanol vehicle (1%) at various concentrations for 5 days without changing the media. On the fifth day, cells were harvested and assayed for markers of differentiation. […] Cells that bioreduce the dye turn blue-black and represent differentiated cells, and are counted. Undifferentiated cells are clear and are also counted; percent differentiated cells are then determined from the two numbers.

[2] = In vivo calcium potential: serum calcium (colorimetric); parameters: species or system mouse (Balb/c mice); details: oral gavage
Protocol: (§4) In vivo gene regulation and calcium potential. Balb/c mice (male 6-8 weeks old, ~20 g) were fed a vitamin D deficient, calcium replete diet (Purina Mills) for 7-14 days prior to receiving treatment with compounds. Animals were housed under normal lighting. Compounds were administered in sesame oil vehicle with 4% ethanol by oral gavage (0.1 mL dose volume). […] On the final day of dosing, 4-6 h after the final dose, animals were euthanized, the kidneys removed and blood collected. Serum was prepared from the blood and calcium determination performed by colorimetric assay (Sigma). […] 15-20 μg total RNA was utilized in Northern blot analysis using rat 24(OH)ase probe; GAPDH probe was used to normalize for RNA loading, as described previously (Id). Quantitation was by PhosphorImager analysis.

[3] = test system: Normal human epidermal keratinocytes (NHEK); experiment: Keratinocyte growth inhibition (BrdU); format: cell-based; details: 96 h, BrdU incorporation, day 4
Protocol: as §2, §3
Keratinocyte growth inhibition. Normal human epidermal keratinocytes (NHEK) were grown according to vendor specifications (Clonetics, San Diego). BrdU assays were performed as above except that cells were plated at 200 cells per well (96-well plates) and fresh media with ligands were added on day 0 and day 2; BrdU assays were run on day 4.

[4] = test system: SK-BR-3 breast cancer cells; experiment: Breast cancer cell growth inhibition (BrdU); format: cell-based; details: Homo sapiens, SK-BR-3, 72 h, BrdU incorporation, 3-day assay
Protocol: as §1, §2, §3

human VDR [5] = molecular target: T1, human VDR (Homo sapiens, UniProt P11473); experiment: biochemical
T1 sequence (P11473 1-427): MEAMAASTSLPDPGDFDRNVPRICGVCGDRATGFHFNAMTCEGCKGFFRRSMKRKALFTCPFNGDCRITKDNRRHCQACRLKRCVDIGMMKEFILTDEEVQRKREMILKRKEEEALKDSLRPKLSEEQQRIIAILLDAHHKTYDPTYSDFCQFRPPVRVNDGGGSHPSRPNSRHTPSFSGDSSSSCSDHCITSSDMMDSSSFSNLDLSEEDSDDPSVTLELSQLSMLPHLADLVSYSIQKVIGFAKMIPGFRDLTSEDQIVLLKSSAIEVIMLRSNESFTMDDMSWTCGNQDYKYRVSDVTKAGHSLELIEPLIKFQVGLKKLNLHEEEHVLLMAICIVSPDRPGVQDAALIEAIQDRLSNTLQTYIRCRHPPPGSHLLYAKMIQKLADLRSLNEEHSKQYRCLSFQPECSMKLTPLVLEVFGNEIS
Protocol: VDR binding. […] Cell extracts from yeast transformants were prepared and full length VDR expression was confirmed by Western blotting. […] Binding buffer contained 10 mM Tris,pH 7.5, 1 mM DTT, and 0.4 M KCl; wash buffer contained 10 mM Tris, 100 mM KCl, and 10 mM CHAPS detergent.

[6] = Serum calcium in LNCaP tumor-bearing nude mice; format: in vivo; details: 3 mg/kg and 10 mg/kg, days 10 and 15
Protocol: FIGS. 1A and 1B depict the In vivo efficacy of compound 4 in LNCaP tumor growth inhibition in nude mice without hypercalcemia.
(§5) In vivo efficacy. Nude mice (6 weeks old) were housed under normal light and fed a vitamin D deficient, calcium replete diet (Purina Mills) for 7-10 days prior to injection with LNCaP cells. Tumors were allowed to grow 2-4 weeks prior to dosing. Compounds or vehicle were administered in sesame oil by oral gavage (0.1 mL dose volume). Dosing was daily for the extent of the study. Tumor measurements were taken on days 10 and 15. Animals were then euthanized, and kidneys and blood retrieved. Serum calcium measurements were taken from the final bleed and an intermediate bleed on day 10. […] Average animal weight change per group was as follows: Vehicle, -7.2%; Compound 4 (3 mg/kg), -2.1%; Compound 4 (10 mg/kg), -8.9%.

24(OH)ase = experiment: In vivo gene regulation: kidney 24(OH)ase RNA induction (Northern blot); parameters: species or system mouse (Balb/c mice); details: for Relative 24(OH)ase activity: oral gavage, vehicle 1, corrected with GAPDH
Protocol: as §4

serum DBP = experiment: Serum DBP binding, rat or human serum, species not given; details: rat (r) or human (h) serum DBP, not marked (r)/(h); competition with [3H]-25(OH)D3
Protocol: Serum DBP-binding. DPB competition binding assays were performed by a literature method (Dusso et al. 1991). The source of DBP was either human serum (Scantibodies) or rat serum (Gibco-BRL) diluted 1:10,000 in sodium phosphate buffer (pH 7.4). Sera were incubated for 2 h at 4° C. with 2 nM [^3 H]-25(OH)D3 (Amersham) with and withoun unlabeled 25(OH)D3 or 1,25(OH)2D3 (0.01 nM-1 μM), or unlabeled vitamin D mimic compounds (10 nM-10 μM). Bound ligand was separated from unbound ligand with Dextran-coated charcoal in gelatin-phosphate buffer.

LNCaP tumor = experiment: In vivo efficacy: LNCaP tumor growth in nude mice; parameters: species or system LNCaP human prostate cancer cells in nude mice
Protocol: as §5

[7] = Animal weight change in LNCaP tumor-bearing nude mice; format: in vivo; details: vehicle -7.2%
Protocol: as §5

human VDR [8] = molecular target: T1, human VDR; experiment: Cotransactivation (CTF) in Hep G2 cells, VDRE-luciferase reporter; format: cell-based; parameters: expressed in transfected cells; host or cells: Hep G2 (human hepatoma, ATCC)
Protocol: Cotransactivation properties. […] Reporter and receptor containing vectors were transfected along with carrier DNA and β-galactosidase internal control plasmid as previously described except that Hep G2 cells were used (Id). Briefly, transfections were performed in triplicate in 96-well gelatin-coated plates with a total of 20 μg/mL DNA (0.5 μg receptor expression vector, 5 μg reported plasmid, 5 μg β-galactosidase plasmid, and pGEM carrier DNA to 20 μg) of calcium phosphate-HEPES transfection solution. […] Luciferase values were normalized with β-galactosidase values to control for variable transfection efficiencies.

[9] = cotransfected VDRE-luciferase reporter and human VDR in Hep G2 cells, read-out: CTF EC50

C=C1/C(=C\C=C2/CCC[C@]3(C)[C@@H]([C@H](C)CCCC(C)(C)O)CC[C@@H]23)C[C@@H](O)C[C@@H]1O [1,25(OH)2 D3, 1,25-dihydroxyvitamin D3, reference compound]
EC50 [1]: 2 nM
EC50 (HL60 cells): 8 to 10 nM
Serum Ca2+ ([2]; 3-day treatment, 15 μg/kg, statistically different than vehicle (p < 0.01)): > 15 mg/dL
Serum Ca2+ ([2]; 5-day treatment, 2 μg/kg): 9.7 ± 0.6 mg/dL
Serum Ca2+ ([2]; 5-day treatment, 5 μg/kg, statistically different than vehicle (p < 0.01)): 10.5 ± 0.6 mg/dL
EC50 [3]: 10 to 30 nM
EC50 [4]: 8 to 10 nM

Cc1cc(C2(c3ccc(OCC(=O)C(C)(C)C)c(C)c3)CCCCC2)ccc1OCC(=O)C(C)(C)C [Compound 4, 1,1-bis[3-methyl-4-(3,3-dimethyl-2-oxobutoxy)phenyl]cyclohexane]
Ki (human VDR [5]): > 10000 nM
EC50 [1]: 2000 nM
EC50 (HL60 cells): 2000 nM
Serum Ca2+ ([2]; 3-day treatment, 10 mg/kg): 9.1 ± 0.5 mg/dL
Serum Ca2+ ([2]; 3-day treatment, 30 mg/kg): 9.0 ± 0.6 mg/dL
Serum Ca2+ ([2]; 5-day treatment, 10 mg/kg): 9.1 ± 0.2 mg/dL
Serum Ca2+ ([2]; 5-day treatment, 30 mg/kg): 10.1 ± 0.5 mg/dL
EC50 [3]: 500 nM
serum calcium levels / hypercalcemia (FIG. 1B) [6]: hypercalcemia was not observed; also recorded: normal serum calcium levels
Ratio 24(OH)ase/Ca2+ (24(OH)ase; 3-day treatment, 10 mg/kg): 1.48
Ratio 24(OH)ase/Ca2+ increase (24(OH)ase; 3-day treatment, 10 mg/kg): 16.9
Relative 24(OH)ase activity (24(OH)ase; 3-day treatment, 10 mg/kg): 13.5
Ratio 24(OH)ase/Ca2+ (24(OH)ase; 3-day treatment, 30 mg/kg): 1.18
Ratio 24(OH)ase/Ca2+ increase (24(OH)ase; 3-day treatment, 30 mg/kg): 15.1
Relative 24(OH)ase activity (24(OH)ase; 3-day treatment, 30 mg/kg): 10.6
Ratio 24(OH)ase/Ca2+ (24(OH)ase; 5-day treatment, 10 mg/kg): 3.38
Ratio 24(OH)ase/Ca2+ increase (24(OH)ase; 5-day treatment, 10 mg/kg): 61.6
Relative 24(OH)ase activity (24(OH)ase; 5-day treatment, 10 mg/kg): 30.8
Ratio 24(OH)ase/Ca2+ (24(OH)ase; 5-day treatment, 30 mg/kg): 5.31
Ratio 24(OH)ase/Ca2+ increase (24(OH)ase; 5-day treatment, 30 mg/kg): 35.8
Relative 24(OH)ase activity (24(OH)ase; 5-day treatment, 30 mg/kg): 53.7
separation of target gene induction from serum calcium (24(OH)ase; mice, vs 1,25(OH)2 D3): greater separation of these effects for 4 than for 1,25(OH)2 D3; also recorded: good separation of target gene regulation from serum calcium elevation
IC50 (serum DBP): > 10000 nM
tumor growth rate vs control group (LNCaP tumor; 3 mg/kg and 10 mg/kg oral gavage daily): decreased tumor growth rates as compared to the control group
tumor size vs vehicle (FIG. 1A) (LNCaP tumor; 10 and 15 days post dosing): smaller
EC50 [4]: 2000 nM
Average animal weight change per group ([7]; 3 mg/kg): -2.1%
Average animal weight change per group ([7]; 10 mg/kg): -8.9%
EC50 (human VDR [8]): 2200 nM

CCC(CC)(c1ccc(OCC(=O)C(C)(C)C)c(C)c1)c1ccc(OCC(=O)C(C)(C)C)c(C)c1 [Compound 7, 3,3-bis[3-methyl-4-(3,3-dimethyl-2-oxobutoxy)phenyl]pentane]
Ki (human VDR [5]): > 10000 nM
EC50 [1]: 300 nM
EC50 (HL60 cells): 800 nM
Serum Ca2+ ([2]; 3-day treatment, 100 μg/kg): 9.6 ± 0.5 mg/dL
Serum Ca2+ ([2]; 3-day treatment, 500 μg/kg, statistically different than vehicle (p < 0.01)): 11.5 ± 0.9 mg/dL
EC50 [3]: 500 nM
Ratio 24(OH)ase/Ca2+ (24(OH)ase; 3-day treatment, 100 μg/kg): 0.63
Ratio 24(OH)ase/Ca2+ increase (24(OH)ase; 3-day treatment, 100 μg/kg): 5.17
Relative 24(OH)ase activity (24(OH)ase; 3-day treatment, 100 μg/kg): 6.0
Ratio 24(OH)ase/Ca2+ (24(OH)ase; 3-day treatment, 500 μg/kg): 0.52
Ratio 24(OH)ase/Ca2+ increase (24(OH)ase; 3-day treatment, 500 μg/kg): 1.88
Relative 24(OH)ase activity (24(OH)ase; 3-day treatment, 500 μg/kg): 6.0
IC50 (serum DBP): > 10000 nM
EC50 [4]: 800 nM
EC50 (human VDR [8]; [9]): 600 nM

CCC(CC)(c1ccc(OCC(=O)C(C)(C)C)c(C)c1)c1ccc(OCC2CO2)c(C)c1 (stereo not drawn) [Compound 9, 3-[3-methyl-4-(2,3-epoxypropoxy)phenyl]-3-[3-methyl-4-(3,3-dimethyl-2-oxobutoxy)phenyl]pentane]
Ki (human VDR [5]): > 10000 nM
EC50 [1]: 100 nM
EC50 (HL60 cells): 150 nM
EC50 [3]: 200 nM
IC50 (serum DBP): > 10000 nM
EC50 [4]: 150 nM
EC50 (human VDR [8]; [9]): 60 nM

CCC(CC)(c1ccc(OCC(=O)C(C)(C)C)c(C)c1)c1ccc(OCC(O)C(C)(C)C)c(C)c1 (stereo not drawn) [Compound 11, 3-[3-methyl-4-(2-hydroxy-3,3-dimethylbutoxy)phenyl]-3-[3-methyl-4-(3,3-dimethyl-2-oxobutoxy)phenyl]pentane]
Ki (human VDR [5]): > 10000 nM
EC50 [1]: 500 nM
EC50 (HL60 cells): 400 nM
IC50 (serum DBP): > 10000 nM
EC50 [4]: 500 nM
EC50 (human VDR [8]): 400 nM

CCC(CC)(c1ccc(OCC(O)CO)c(C)c1)c1ccc(OCC(O)C(C)(C)C)c(C)c1 (stereo not drawn) [Compound 13, 3-[3-methyl-4-(2,3-dihydroxypropoxy)phenyl]-3-[3-methyl-4-(2-hydroxy-3,3-dimethylbutoxy)phenyl]pentane]
EC50 [1]: 20 nM
EC50 (HL60 cells): 30 to 50 nM
EC50 [3]: 30 to 50 nM
IC50 (serum DBP): > 10000 nM
EC50 [4]: 30 to 50 nM
